Experimental findings from US8785452B2, “Anti-infective compounds” (priority 2008, dated 2014) are described below.

The subject of the assay is M. tuberculosis clinical isolates. It is filed as cell-based, Mycobacterium tuberculosis. The conditions noted are these: multi-drug-resistant and extensive-drug-resistant isolates.

Structures are written as SMILES.

In the case of `Cc1cccn2c(=O)c(C=O)c(Nc3cccc(Cl)c3)nc12` [compound 133, 2-(3-Chlorophenylamino)-9-methyl-4-oxo-4H-pyrido[1,2-a]pyrimidine-3-carbaldehyde], the “activity (MIC values) against MDR and XDR clinical isolates, in words” value is on record as “within the micromolar range”.
